The text below walks through data of patent publication US9512074B2, “Radiolabeled inhibitors of the amino acid transporters ASCT1 and ASCT2” (The University of Montana, priority 2011, dated 2016).

For one test, the target named is T1, murine ASCT2 (Mus musculus, UniProt P51912).
T1 construct: expressed in transfected cells; host or cells: Xenopus laevis oocytes (cRNA microinjection)
T1 sequence (P51912 1-553): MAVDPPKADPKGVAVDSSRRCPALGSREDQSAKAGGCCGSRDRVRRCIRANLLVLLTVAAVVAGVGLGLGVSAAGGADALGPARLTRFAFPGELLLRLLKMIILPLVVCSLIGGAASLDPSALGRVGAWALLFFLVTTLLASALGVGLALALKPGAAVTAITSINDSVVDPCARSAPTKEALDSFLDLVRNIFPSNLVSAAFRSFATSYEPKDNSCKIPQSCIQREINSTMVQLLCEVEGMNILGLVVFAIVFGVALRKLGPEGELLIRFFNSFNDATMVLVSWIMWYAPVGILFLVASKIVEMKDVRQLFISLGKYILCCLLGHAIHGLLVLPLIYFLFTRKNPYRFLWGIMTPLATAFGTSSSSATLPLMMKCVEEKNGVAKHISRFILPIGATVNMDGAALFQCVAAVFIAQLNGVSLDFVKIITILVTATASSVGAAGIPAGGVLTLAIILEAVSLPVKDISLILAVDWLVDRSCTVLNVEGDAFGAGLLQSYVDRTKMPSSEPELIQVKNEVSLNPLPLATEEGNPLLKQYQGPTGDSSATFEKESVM
The test is described as follows: Inhibition of anion leak current, two-electrode voltage clamp in Xenopus oocytes expressing mouse ASCT2. The test is classed as cell-based. Particulars: for Ki: Xenopus oocytes expressing mouse ASCT2, held at −20 mV, * = actual Ki, others Ki estimates. How it is done: (§1) Human ASCT1 and murine ASCT2 cRNA were microinjected in stage V-VI oocytes. Uncoupled anion currents associated with the transport of substrate were recorded 3-5 days later as previously described (Zerangue & Kavanaugh, 1996). Recording solution contained 50 mM NaCl, 50 mM NaSCN, 2 mM KCl, 1 mM MgCl2, 1.8 mM CaCl2, and 5 mM HEPES (pH 7.4). Using two-electrode voltage clamp (TEVC), oocytes were held at −20 mV. Microelectrodes were filled with 3M KCl and had resistances from 1 to 3 MΩ. Recordings were performed at 22° C. with a Geneclamp 500 amplifier connected to a PowerLab 2/26 (AD instruments). The digital output was interfaced to a MacBook Pro (Macintosh) using Chart v7.1.2 software. The currents were low-pass filtered at 10 Hz and acquired at 20 Hz. Data was analyzed offline and modeling and fitting of substrate concentration-dependence of the currents was performed with Kaleidagraph software (v 4.04). The concentration dependent percent block of the anion leak or substrate activation of the anion current were fit with the Michaelis-Menten equation (Ianion=Imax×[Drug]/(Km+[Drug])) to define the Ki of inhibition or the apparent affinity (Km) of transport, respectively.

The next test has as its target T2, Human ASCT1 (Homo sapiens, UniProt P43007).
T2 construct: expressed in transfected cells; host or cells: Xenopus laevis oocytes (cRNA microinjection)
T2 sequence (P43007 1-532): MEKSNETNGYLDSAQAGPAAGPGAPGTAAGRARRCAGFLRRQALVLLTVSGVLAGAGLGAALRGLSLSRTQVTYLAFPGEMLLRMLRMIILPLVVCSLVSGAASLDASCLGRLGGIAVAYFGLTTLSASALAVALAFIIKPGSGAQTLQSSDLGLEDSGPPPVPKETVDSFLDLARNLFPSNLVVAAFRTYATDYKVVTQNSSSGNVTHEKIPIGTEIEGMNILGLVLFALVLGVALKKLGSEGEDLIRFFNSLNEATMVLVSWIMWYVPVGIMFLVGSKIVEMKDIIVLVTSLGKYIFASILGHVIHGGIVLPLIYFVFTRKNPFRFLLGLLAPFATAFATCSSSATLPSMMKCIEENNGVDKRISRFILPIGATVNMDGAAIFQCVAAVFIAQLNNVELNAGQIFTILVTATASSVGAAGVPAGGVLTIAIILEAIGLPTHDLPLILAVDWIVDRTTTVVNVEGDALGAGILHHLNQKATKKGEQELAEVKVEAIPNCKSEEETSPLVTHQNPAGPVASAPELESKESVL
Nature of the test: Inhibition of anion leak current, two-electrode voltage clamp in Xenopus oocytes expressing human ASCT1. The note with it: for Ki: Xenopus oocytes expressing human ASCT1, held at −20 mV, * = actual Ki, others Ki estimates, read-out: Ki (μM) ACST1. The test is classed as cell-based. How it is done:
as §1

Where [1] appears, read: 300 μM, −20 mV, opposite the current induced by substrate.

As for `C[C@@]1(O)CN[C@H](C(=O)O)C1` [CSE96, cis-4-hydroxy-trans-4-methyl-L-proline], the results for the Ki on murine ASCT2 and on Human ASCT1 were 1080 µM and greater than 500 µM, respectively.
Taken in the same sequence, the figures for `O=C(O)[C@H]1NC[C@H](OCc2ccccc2)[C@H]1O` [CSE113, cis-3-hydroxy-trans-4-benzyloxy-L-proline] were 828 µM and 493 µM.
Taken in the same sequence, the figures for `O=C(O)[C@H]1NC[C@@H](c2ccccc2)[C@@H]1O` [CSE104, (2S,3S,4R)-3-hydroxy-4-phenyl-proline] were greater than 500 µM and greater than 500 µM.
For the compound `CO[C@H]1CN[C@H](C(=O)O)[C@@H]1O` [CSE124], the inhibition constant (Ki) at murine ASCT2 was 600 µM; on Human ASCT1, 481 µM.
Taken in the same sequence, the figures for `O=C(O)[C@H]1NC[C@@H](OCc2cccc3ccccc23)[C@@H]1O` [CSE132] were roughly 10 µM and roughly 10 µM.
The corresponding values for `O=C(O)[C@H]1NC[C@@H](Oc2ccccc2)C1O` (stereo in doubt) [CSE118, (2S,3S,4R)-3-hydroxy-4-phenoxy-proline] are 141 µM and 150 µM.
The corresponding values for `O=C(O)[C@@H]1C[C@H](O)CN1` [CSE111] are 872 µM and 805 µM.
For the compound `CO[C@@H]1CN[C@H](C(=O)O)[C@H]1O` [CSE115, trans-3-hydroxy-cis-4-methoxy-L-proline], the Ki on murine ASCT2 is 235 µM; on Human ASCT1 it was 214 µM.
The corresponding values for `C[C@@H]1CN[C@H](C(=O)O)[C@H]1O` [CSE110] are 1150 µM and 1050 µM.
For the compound `CC(C)O[C@H]1CN[C@H](C(=O)O)[C@@H]1O` [CSE127, cis-3-hydroxy-trans-4-isopropoxy-L-proline], the Ki at murine ASCT2 and on Human ASCT1 was greater than 500 µM in each case.
`C[C@]1(O)CN[C@H](C(=O)O)C1` [CSE95, cis-4-methyl-trans-4-hydroxy-L-proline]: the Ki was 926 µM at murine ASCT2 and greater than 500 µM at Human ASCT1.
Take `O=C(O)[C@H]1NC[C@H](O)[C@H]1Oc1ccccc1` [CSE117, (2S,3S,4S)-3-phenoxy-4-hydroxy-proline]: the values for the Ki at murine ASCT2 and on Human ASCT1 were 502 µM and 594 µM, respectively.
Taken in the same sequence, the figures for `O=C(O)[C@H]1NC[C@H](O)[C@H]1c1ccccc1` [CSE103, (2S,3S,4R)-3-phenyl-4-hydroxy-proline] were 1130 µM and 332 µM.
In the case of `CC(C)O[C@@H]1CN[C@H](C(=O)O)[C@H]1O` [CSE122], the Ki is 268 µM on murine ASCT2 and 237 µM at Human ASCT1. Moreover, the “block of leak current in hASCT1 (FIG. 4)” value on Human ASCT1 (setting [1]) is “blocking a leak current”.
For `O=C(O)[C@H]1NC[C@@H](OCc2ccccc2)[C@@H]1O` [CSE121, trans-3-hydroxy-cis-4-benzyloxy-L-proline], the “block of leak current in mASCT2 (FIG. 4)” value at murine ASCT2 (setting [1]) was “blocking a leak current”. Besides, the Ki at murine ASCT2 is 69 µM; at Human ASCT1, 39 µM.
On to `O=C(O)[C@H]1NC[C@@H](OCc2ccc(-c3ccccc3)cc2)[C@@H]1O` [CSE131, (2S,3R,4R)-3-hydroxy-4-o-methyl-p-biphenyl-proline], for which the Ki on murine ASCT2 is 0.24 µM; on Human ASCT1, 0.31 µM.
Taken in the same sequence, the figures for `C[C@H]1[C@@H](C(=O)O)NC[C@@H]1O` [CSE109] were 922 µM and 564 µM.
The corresponding values for `O=C(O)[C@H]1NC[C@@H](OCc2cccc(Oc3ccccc3)c2)[C@@H]1O` [CSE130] are 10 µM and 13 µM.
